This is an account of results in patent publication US20260068884A1, “COMPOSITION USED FOR KILLING FUNGI AND METHOD FOR APPLYING COMPOSITION” (JIANGSU FLAG CHEMICAL INDUSTRY CO., LTD., priority 2022, published 2026).

One assay concerns Blumeria graminis. In words: pot culture method, protective control of wheat powdery mildew. The assay is classed as in vivo. The note with it: for EC50: Blumeria graminis, control efficacy, potted wheat, sprayed 24 h before inoculation, 7 days after inoculation; for Measured Toxicity Index of Mixture (ATI): standard fungicide = component A.
Assay [1] has as its system wheat rust (Puccinia striiformis f. sp. tritici). In words: pot culture method, protective control of wheat rust. The assay is classed as in vivo. The note with it: for EC50: Puccinia striiformis; for Measured Toxicity Index of Mixture (ATI): standard fungicide = component A.
Assay [2] has as its system wheat scab germ (Fusarium graminearum). In words: microbe, parasite or virus in culture. The assay is classed as cell-based. Particulars: for Measured Toxicity Index of Mixture (ATI): standard fungicide = component A.
The test system of assay [3] is rape sclerotinia sclerotiorum. In words: plate method, inhibition of hypha growth (in-vessel bioassay). The assay is classed as cell-based. Particulars: for EC50: Sclerotinia sclerotiorum.
In a further assay the test system is cucumber powdery mildew. In words: field efficacy test for cucumber powdery mildew. The class given is in vivo. The note with it: spray. The procedure:
Field efficacy test for preventing and treating cucumber powdery mildew.
The test object is cucumber powdery mildew. The test is carried out on Xiaoying village of Liuhe district of Nanjing city, Jiangsu Province, China, the field trend of the test is flat, the soil is loam, the fertility is medium, the pH value is 6.8, and the management of rich water during the test is medium. And setting blank contrast, repeating the treatment for 3 times, wherein each cell has 30 square meters and is arranged in random block groups. The water consumption per acre is 40 L by adopting a conventional spraying method, and the water is uniformly sprayed on the front and back surfaces of the leaves.
The investigation and statistical method comprises the steps of investigating the base of illness state before application of the medicament, and investigating once again 10-14 days after the last application of the medicament, wherein 2 times of investigation are total. Four points are randomly taken from each cell, 2 plants are investigated from each point, all leaves are investigated from each plant, and each leaf is graded and recorded according to the percentage of lesion spots to the leaf area. The grading method comprises the following steps: • stage 0: no lesion spots; • stage 1: the lesion area accounts for less than 5% of the whole leaf area; • stage 3: the ratio of the lesion spot area to the whole leaf area is more than 6% to less than 10%; • stage 5: the ratio of the lesion spot area to the whole leaf area is more than 11% to less than 25%; • stage 7: the ratio of the lesion spot area to the whole leaf area is more than 26% to less than 50%; • stage 9: the ratio of the lesion spot area to the whole leaf area is more than 50%;
When the fungicidal activity of the active compound combination exceeds the sum of the activities of the active compounds when applied individually, then there is always a synergistic effect of the fungicides. The expected activity of a given combination of two active compounds can be calculated (according to the Colby formula) as follows (refer to S. R. Colby, “Calculation of the synergistic andantagonistic responses of herbicide combinations”, Weeds 1967, 15, pages 20-22):
[formula] • X is the efficacy of component A when applied at an application rate of m g a.i./ha, • Y is the efficacy of component B when applied at an application rate of n g a.i./ha, • Cexp is the expected efficacy when the active compound A is administered at an application rate of m g a.i./ha and the active compound B is administered at an application rate of n g a.i./ha, respectively, • the degree of efficacy is expressed as %: 0% means the efficacy corresponding to the control group, while 100% efficacy means no disease observed. • C-Cobs/Cexp, C>1 indicates synergy and antagonism if C<1.

Setting [4] is: single component B, g a.i./ha: azoxystrobin 72, fludioxonil 50, pyraclostrobin 160, difenoconazole 100.
The mark [5] stands for this setting: hypha growth inhibition, plate method, wheat fusarium graminearum.

Converted amounts (≈) assume the structure as drawn. Like-named read-outs stand apart in the source and are kept apart here.

A word on the EC50: it is the concentration needed to bring the measured effect to its halfway point. Low readings indicate greater potency, high ones weaker potency. In the case of `CCCC1COC(Cn2cncn2)(c2ccc(Cl)cc2Cl)O1` (stereo not drawn) [propiconazole], in the assay with Blumeria graminis, the concentration for a half-maximal effect (EC50) stood at 11 µg/mL (≈ 32.1 µM) and the “Measured Toxicity Index of Mixture (ATI)” value came out at 145.45. In assay [1], the EC50 came out at 15 µg/mL (≈ 43.8 µM) and the “Measured Toxicity Index of Mixture (ATI)” value is 193.33.
Consider `C=C(CN(C(=O)c1c(C(F)F)nn(C)c1F)C1CC1)c1ccc(Cl)cc1Cl` [component A], for which the concentration for a half-maximal effect (EC50) in assay [2] (Fusarium graminearum) is 0.01 µg/mL (≈ 0.0239 µM); in assay [3], 0.01 µg/mL (≈ 0.0239 µM); in the assay on Blumeria graminis, 16 µg/mL (≈ 38.3 µM); in assay [1], 29 µg/mL (≈ 69.3 µM). The “Measured Toxicity Index of Mixture (ATI)” value is given as 100.00 in assay [2], 100 in assay [3] (standard fungicide = component A), 100.00 in the assay on Blumeria graminis and 100.00 in assay [1]. Besides, the “Cobs Actual control Effect” value in the assay on cucumber powdery mildew (40 g a.i./ha) is on record as 37.60%; in the assay with cucumber powdery mildew (60 g a.i./ha), 46.88%; with cucumber powdery mildew (104 g a.i./ha) it was 54.68%; in the assay with cucumber powdery mildew (150 g a.i./ha), 67.74%.
In the case of `N#Cc1c(Cl)c(Cl)c(Cl)c(C#N)c1Cl` [chlorothalonil], in assay [3], the “Measured Toxicity Index of Mixture (ATI)” value stood at 1.22 and the EC50 came out at 0.82 µg/mL (≈ 3.08 µM).
Consider `N#Cc1c[nH]cc1-c1cccc2c1OC(F)(F)O2` [fludioxonil], for which, in assay [3], the “Measured Toxicity Index of Mixture (ATI)” value turned out to be 66.67 and a half-maximal effect (EC50) was put at 0.015 µg/mL (≈ 0.0604 µM). The “Cobs Actual control Effect” value in the assay with cucumber powdery mildew (setting [4]) is reported as 47.70%.
On to fluazolidinamide, for which the entries for the “Measured Toxicity Index of Mixture (ATI)” value (with Blumeria graminis; in assay [1]) were 80.00 and 116.00, respectively.
For `CC1COC(Cn2cncn2)(c2ccc(Oc3ccc(Cl)cc3)cc2Cl)O1` (stereo not drawn) [difenoconazole], in the assay with cucumber powdery mildew (setting [4]), the “Cobs Actual control Effect” value was 67.85%.
The same measure, in the same setting: to `CO/C=C(/C(=O)OC)c1ccccc1Oc1cc(Oc2ccccc2C#N)ncn1` [azoxystrobin] belongs 50.28%.
As for `OCC1=C[C@H](N[C@H]2C[C@H](CO)[C@@H](O[C@@H]3O[C@H](CO)[C@@H](O)[C@H](O)[C@H]3O)[C@H](O)[C@H]2O)[C@H](O)[C@@H](O)[C@@H]1O` [validamycin], a half-maximal effect in assay [2] (Fusarium graminearum) (EC50) was put at 13 µg/mL (≈ 26.1 µM). The “Measured Toxicity Index of Mixture (ATI)” value in assay [2] is listed as 0.08.
Regarding `CC(C)(C)C(O)(CCc1ccc(Cl)cc1)Cn1cncn1` (stereo not drawn) [tebuconazole], the EC50 in assay [2] (Fusarium graminearum) was found to be 0.06 µg/mL (≈ 0.195 µM); in assay [3], 0.1 µg/mL (≈ 0.325 µM); in the assay on Blumeria graminis, 13 µg/mL (≈ 42.2 µM); in assay [1] it was 16 µg/mL (≈ 52 µM). Besides, the “Measured Toxicity Index of Mixture (ATI)” value in assay [2] is 16.67; in assay [3], 10.00; with Blumeria graminis, 123.08; in assay [1] it was 181.25.
For `CCCN(CCOc1c(Cl)cc(Cl)cc1Cl)C(=O)n1ccnc1` [prochloraz], the EC50 came out at 0.02 µg/mL (≈ 0.0531 µM) in assay [2] (Fusarium graminearum) and 0.08 µg/mL (≈ 0.212 µM) in assay [3]. Moreover, the “Measured Toxicity Index of Mixture (ATI)” value in assay [2] was found to be 50.00; in assay [3] it was 12.5.
Regarding `COC(=O)N(OC)c1ccccc1COc1ccn(-c2ccc(Cl)cc2)n1` [pyraclostrobin], the EC50 in assay [2] (Fusarium graminearum) is 2 µg/mL (≈ 5.16 µM); with Blumeria graminis it was 12 µg/mL (≈ 30.9 µM); in assay [1] it was 12 µg/mL (≈ 30.9 µM). Besides, the “Measured Toxicity Index of Mixture (ATI)” value came out at 0.50 in assay [2], 133.33 in the assay on Blumeria graminis and 241.67 in assay [1]. Moreover, the “Cobs Actual control Effect” value in the assay on cucumber powdery mildew (setting [4]) turned out to be 72.87%.
Regarding `CCOC(=O)C(C#N)=C(N)c1ccccc1` [phenamacril], it took 0.4 µg/mL (≈ 1.85 µM) to reach a half-maximal effect in assay [2] (setting [5]) (EC50). The “Measured Toxicity Index of Mixture (ATI)” value in assay [2] is reported as 2.50.
In turn, `CC1(C)CCC(Cc2ccc(Cl)cc2)C1(O)Cn1cncn1` (stereo not drawn) [metconazole] returned a concentration giving a half-maximal response (EC50) in assay [2] (Fusarium graminearum) of 0.03 µg/mL (≈ 0.0938 µM). For the same compound, the “Measured Toxicity Index of Mixture (ATI)” value in assay [2] is 33.33.
Consider `CC(C1CC1)C(O)(Cn1cncn1)c1ccc(Cl)cc1` (stereo not drawn) [ciproconazole], for which the EC50 in assay [2] (setting [5]) was found to be 2 µg/mL (≈ 6.85 µM). In addition, the entries for the “Measured Toxicity Index of Mixture (ATI)” value (in assay [2]; with Blumeria graminis; in assay [1]) were 0.50, 94.12 and 233.08, respectively.
As to `OC(Cc1ccccc1Cl)(Cn1nc[nH]c1=S)C1(Cl)CC1` (stereo not drawn) [prothioconazole], the EC50 in assay [2] (Fusarium graminearum) is 4 µg/mL (≈ 11.6 µM); in the assay with Blumeria graminis, 14 µg/mL (≈ 40.7 µM); in assay [1], 9 µg/mL (≈ 26.1 µM). Besides, the “Measured Toxicity Index of Mixture (ATI)” value is given as 0.25 in assay [2], 114.29 in the assay with Blumeria graminis and 322.22 in assay [1].
